{"source": "patent US12357697B2", "about": "“Pharmaceutical compositions comprising bupropion and cysteine” (AXSOME THERAPEUTICS, INC., priority 2022, dated 2025)", "key": {"[1]": {"assay": "not given", "remark": "listed apart in the source"}}, "note": "Counter-ions that a name gives are not always drawn. Like-named read-outs stand apart in the source and are kept apart here.", "data": [{"compound": "COc1ccc2c(c1)[C@]13CCCC[C@@H]1[C@H](C2)N(C)CC3", "note": "[AD, dextromethorphan hydrobromide monohydrate]", "values": [{"measurement": "ASSAY", "setting": "25° C./60% RH, 4 wks", "value": 102.5}, {"measurement": "TOTAL RS", "setting": "25° C./60% RH, 4 wks", "value": 0.25}, {"measurement": "ASSAY", "setting": "25° C./60% RH, 8 wks", "value": 100.2}, {"measurement": "TOTAL RS", "setting": "25° C./60% RH, 8 wks", "value": 0.20}, {"measurement": "ASSAY", "setting": "40° C./75% RH, 4 wks", "value": 101.5}, {"measurement": "TOTAL RS", "setting": "40° C./75% RH, 4 wks", "value": 0.18}, {"measurement": "ASSAY", "setting": "40° C./75% RH, 8 wks", "value": 100.1}, {"measurement": "TOTAL RS", "setting": "40° C./75% RH, 8 wks", "value": 0.72}, {"measurement": "ASSAY", "setting": "T = 0 (initial)", "value": 101.4}, {"measurement": "TOTAL RS", "setting": "T = 0 (initial)", "value": 0.21}]}, {"compound": "CC(NC(C)(C)C)C(=O)c1cccc(Cl)c1", "note": "(stereo not shown) [AB, bupropion hydrochloride]", "values": [{"measurement": "stability / compatibility of bupropion hydrochloride (in words)", "setting": "[1]; 8 weeks", "value": "stable for the entire 8 weeks"}, {"measurement": "ASSAY", "setting": "[1]; 25° C./60% RH, 4 wks", "value": 97.6}, {"measurement": "TOTAL RS > LOQ", "setting": "[1]; 25° C./60% RH, 4 wks", "value": "<LOQ"}, {"measurement": "ASSAY", "setting": "[1]; 25° C./60% RH, 8 wks", "value": 100.2}, {"measurement": "TOTAL RS > LOQ", "setting": "[1]; 25° C./60% RH, 8 wks", "value": 0.13}, {"measurement": "ASSAY", "setting": "[1]; 40° C./75% RH, 2 wks", "value": 100.4}, {"measurement": "TOTAL RS > LOQ", "setting": "[1]; 40° C./75% RH, 2 wks", "value": 0.43}, {"measurement": "ASSAY", "setting": "[1]; 40° C./75% RH, 4 wks", "value": 99.3}, {"measurement": "TOTAL RS > LOQ", "setting": "[1]; 40° C./75% RH, 4 wks", "value": 0.94}, {"measurement": "ASSAY", "setting": "[1]; 40° C./75% RH, 8 wks", "value": 101.3}, {"measurement": "TOTAL RS > LOQ", "setting": "[1]; 40° C./75% RH, 8 wks", "value": 1.16}, {"measurement": "ASSAY", "setting": "[1]; 50° C./ambient, 2 wks", "value": 100.6}, {"measurement": "TOTAL RS > LOQ", "setting": "[1]; 50° C./ambient, 2 wks", "value": 0.14}, {"measurement": "ASSAY", "setting": "[1]; T = 0 (initial)", "value": 100.4}, {"measurement": "TOTAL RS > LOQ", "setting": "[1]; T = 0 (initial)", "value": "<LOQ"}]}]}
